From patent US4001323A, “Water-soluble, non-ionizing hydroxy-containing amide derivatives of 2,4,6-triiodo-isophthalic acid” (Savac AG, priority 1974, dated 1977)
Values after ≈ are worked out from the molar mass of the structure shown.

What was measured:
[1] = Solubility in water (Table I); assay type: physicochemical; conditions: for solubility: water
Procedure: The following Examples are further illustrative of this invention. All solubility values are in grams per 100 ml unless stated otherwise.

[2] = Solubility in organic solvents; assay type: physicochemical
Procedure: (§1) 10 Ml of a solution containing 10 g Compound A was stored several days at 4° C, whereby only 2.3 g of the compound was precipitated.

[3] = Storage / supersaturation stability of aqueous solutions; assay type: physicochemical
Procedure: as §1
The residue was recrystallized from aqueous methanol and consisted of 11.6 g DL-5-α,β-dihydroxypropionylamino-2,4,6-triiodo-isophtalic acid di-(1,3-dihydroxyisopropylamide) (62.5% yield). It sintered and melted at 210° - 230° C and decomposed at 260° C. It gave an Rf value of 0.15 by thin layer chromatography on silica gel with chloroform/methanol/aqueous 25% ammonia 6:3:1. It was identified by elementary analysis for carbon and iodine which yielded values of 25.70% C and 48.29% I against 25.74% and 48.00% respectively calculated for C17 H22 I3 N3 O9.

[4] = Viscosity of aqueous solutions; assay type: physicochemical
Procedure: Aqueous solutions of Compound A containing 300 and 400 mg iodine respectively had viscosities of 8.95 and 40.6 c.p. at 20°, 4.70 and 16.1 c.p. at 37° C. A low viscosity facilitates injection.

[5] = Thermal stability of aqueous solutions; assay type: physicochemical; set-up: key to Appearance, initial / Appearance, 30 min. / Appearance, 15 hrs.: (1): Clear solution; (2): Colorless; (3): Slightly colored; (4): Brown suspension, black sediment; conditions: 400 mg I per ml, under nitrogen, 120° C
Procedure: For a comparison of thermal stability, aqueous solutions of Compounds A and H containing 400 mg I per ml where heated under nitrogen at 120° C. pH, iodide ion concentration and appearance were determined initially, after 30 minutes and after 15 hours.

rats = assay: Acute intracarotideal toxicity LD50 in rats; assay type: in vivo; conditions: 400 mg I per ml, 20 mg I per kg and minute, evaluated after 48 hours
Procedure: (§2) The solutions injected for i.v., i.p., i.ci., and i.ca. toxicity tests contained 400 mg I per ml. The rate of injection was 20 mg I per kg and minute for i.v. and i.ca. toxicity. In the tests for i.ce. toxicity, the injected volume was 5ml/kg, and the concentration was varied. Results of i.v. and i.p. toxicity tests were evaluated after 12 days, results of i.ce. and i.ca. toxicity tests after 48 hours.

mice [6] = assay: Acute toxicity LD50 in mice (i.v., i.p., i.ce.); assay type: in vivo; conditions: for Toxicity, LD50, i.ce.: intracerebral, 5 ml/kg, concentration varied, evaluated after 48 hours; for Toxicity, LD50, i.p.: intraperitoneal; for Toxicity, LD50, i.p. / Toxicity, LD50, i.v.: 400 mg I per ml, evaluated after 12 days; for Toxicity, LD50, i.v.: intravenous, 20 mg I per kg and minute
Procedure: as §2

rabbits = assay: Acute intracisternal toxicity LD50 in rabbits; assay type: in vivo; conditions: 400 mg I per ml
Procedure: as §2

[7] = cited from earlier work
[8] = in vivo; cited from earlier work
mice [9] = conditions: intravenous, literature; cited from earlier work
[10] = 20° C, read-out: Solubility in water at 20° C
[11] = 40° C, read-out: Solubility in water at 40° C
[12] = 60° C, read-out: Solubility in water at 60° C

Row | Solubility in water (in words) [1] | solubility [1, 10] [mg/mL] | solubility [1, 11] [mg/mL] | solubility [1, 12] [mg/mL] | Molecule | Toxicity, LD50, i.ce. (mice [6]) [mg I/kg] | Toxicity, LD50, i.v. (mice [6]) [mg I/kg] | Toxicity, LD50, i.ci. (rabbits) [mg I/kg] | other results
1 | very easily soluble in water | 157 | 210 | 400 | C[C@H](O)C(=O)Nc1c(I)c(C(=O)NCC(O)CO)c(I)c(C(=O)NCC(O)CO)c1I (mixture of isomers) [Compound C, L-5-α-hydroxypropionylamino-2,4,6-triiodo-isophthalic acid di-(DL-2,3-dihydroxypropyl-amide)] | – | – | – | Solubility in ethanol (in words) ([2]; ethanol): somewhat less soluble in ethanol
2 | somewhat less soluble than Compound C | 140 | 200 | 340 | CC(O)C(=O)Nc1c(I)c(C(=O)NCC(O)CO)c(I)c(C(=O)NCC(O)CO)c1I (mixture of isomers) [Compound D, 5-DL-α-Hydroxypropionylamino-2,4,6-triiodo-isophthalic acid di-(DL-2,3-dihydroxypropylamide)] | – | – | – | Solubility in water at 20° C ([1]; 20° C): 14 g/100 ml; Solubility in water at 40° C ([1]; 40° C): 20 g/100 ml; Solubility in water at 60° C ([1]; 60° C): 34 g/100 ml
3 | – | 300 (≈ 386 mM) | 300 (≈ 386 mM) | 320 (≈ 412 mM) | CC(O)C(=O)Nc1c(I)c(C(=O)NC(CO)CO)c(I)c(C(=O)NC(CO)CO)c1I (racemic) [Compound B, dl-5-α-hydroxypropionylamino-2,4,6triiodo-isophthalic acid di-(1,3-dihydroxyisopropylamide)] | – | – | – | –
4 | good solubility in warm water | – | – | – | O=C(NC(CO)CO)c1c(I)c(NC(=O)C(O)CO)c(I)c(C(=O)NC(CO)CO)c1I (racemic) [DL-5-α,β-dihydroxypropionylamino-2,4,6-triiodo-isophtalic acid di-(1,3-dihydroxyisopropylamide)] | – | – | – | Stability of supersaturated solutions ([3]; 37° C, water): stable for several hours at 37 °C
5 | poor solubility | 5 (≈ 6.69 mM) | 8 (≈ 10.7 mM) | 15 (≈ 20.1 mM) | CC(=O)Nc1c(I)c(C(=O)NCC(O)CO)c(I)c(C(=O)NCC(O)CO)c1I (stereo not shown) [Compound F, 5-acetylamino:2,4,6-triiodo-isophthalic acid di-(2,3-dihydroxypropylamide), reference compound] | – | – | – | –
6 | – | – | – | – | O=S(=O)(CI)NC(CO)CO [Compound I, iodomethanesulfonic acid αγ-dihydroxyisopropylamide] | 385 | 4700 | 89 | –
7 | – | – | – | – | CNC(=O)c1c(I)c(NC(=O)CCCCC(=O)Nc2c(I)c(C(=O)O)c(I)c(C(=O)NC)c2I)c(I)c(C(=O)O)c1I [Compound K, 5,5'-adipoyldiimino-bis-(2,4,6-triiodo-N-methyl-isophthalamic acid)] | 280 | 5500 | 37 | –
8 | poor solubility | 2 (≈ 2.68 mM) | – | 5 (≈ 6.69 mM) | CC(=O)Nc1c(I)c(C(=O)NC(CO)CO)c(I)c(C(=O)NC(CO)CO)c1I [E, 5-acetylamino-2,4,6-triiodo-isophthalic acid di-(1,3-dihydroxisopropylamide), reference compound] | – | – | – | –

Row | Molecule | Solubility in water (in words) [1] | solubility [1, 10] [mg/mL] | solubility [1, 11] [mg/mL] | solubility [1, 12] [mg/mL] | Toxicity, LD50, i.ce. (mice [6]) [mg I/kg] | Toxicity, LD50, i.v. (mice [6]) [mg I/kg] | Toxicity, LD50, i.ci. (rabbits) [mg I/kg] | other results
9 | 5-α-acetoxypropionylamino-2,4,6-triiodo-isophthalic acid di-(2,2-dimethyl-1,3-dioxolan-4-yl-methylamide) | practically insoluble in water | – | – | – | – | – | – | –
10 | C[C@H](O)C(=O)Nc1c(I)c(C(=O)NC(CO)CO)c(I)c(C(=O)NC(CO)CO)c1I [Compound A, L-5-α-Hydroxypropionylamino-2,4,6-triiodo-isophthalic acid di-(1,3-dihydroxyisopropylamide)] | very readily soluble in water | 890 (≈ 1150 mM) | 1040 (≈ 1340 mM) | 1150 (≈ 1480 mM) | 1500 | 21800 | 250 | Solubility in ethanol (in words) ([2]; ethanol): miscible with boiling ethanol; Solubility in methanol ([2]; methanol): practically unlimited; solubility ([2]; organic solvent or mixture, ethanol, room temperature): ~100 mg/mL (≈ 129 mM); Viscosity of aqueous solution, 300 mg iodine, 20° C ([4]; 300 mg iodine, 20° C): 8.95 c.p.; Viscosity of aqueous solution, 300 mg iodine, 37° C ([4]; 300 mg iodine, 37° C): 4.70 c.p.; Viscosity of aqueous solution, 400 mg iodine, 20° C ([4]; 400 mg iodine, 20° C): 40.6 c.p.; Viscosity of aqueous solution, 400 mg iodine, 37° C ([4]; 400 mg iodine, 37° C): 16.1 c.p.; Amount precipitated from aqueous solution on storage ([3]; 10 ml of solution containing 10 g, several days at 4° C): 2.3 g; Appearance, 30 min. [5]: (1) (2); iodide ion concentration, 30 min. [5]: 0.3 mg I' per ml; pH, 30 min. [5]: 7.29; Appearance, 15 hrs. [5]: (1) (3); iodide ion concentration, 15 hrs. [5]: 1.8 mg I' per ml; pH, 15 hrs. [5]: 5.15; Appearance, initial [5]: (1) (2); iodide ion concentration, initial [5]: 0.15 mg I' per ml; pH, initial [5]: 7.43; Toxicity, LD50, i.ca. (rats): 6500 mg I/kg; Toxicity, LD50, i.p. (mice [6]): 20000 mg I/kg
11 | CC(=O)Nc1c(I)c(C(=O)N[C@H]2C(O)O[C@H](CO)[C@@H](O)[C@@H]2O)c(I)c(N(C)C(C)=O)c1I (stereo partly shown) [Compound H, 3-acetylamino-5-N-methyl-acetylamino-2,4,6-triiodobenzoyl-glucosamine, reference compound] | – | ~800 (≈ 1010 mM) | – | – | 1400 | 10200 | 100 | Solubility in water (in words, known compounds) [7]: very soluble in water; Appearance, 30 min. [5]: (3); iodide ion concentration, 30 min. [5]: 1.71 mg I' per ml; pH, 30 min. [5]: 6.45; Appearance, 15 hrs. [5]: (4); iodide ion concentration, 15 hrs. [5]: 40.60 mg I' per ml; pH, 15 hrs. [5]: 2.65; Appearance, initial [5]: (1); iodide ion concentration, initial [5]: 0.66 mg I' per ml; pH, initial [5]: 6.54; Toxicity, LD50, i.p. (mice [6]): 4800 mg I/kg; Toxicity (in words, known compound) [8]: relatively non-toxic; i.v. LD50 in mice (F.L. Weitl, 170th Am. Chem. Soc. meeting) (mice [9]): 23800 mg/kg; i.v. LD50 in mice (F.L. Weitl, 170th Am. Chem. Soc. meeting), as iodine (mice [9]): 11400 mg I per kg
12 | CC(=O)Nc1c(I)c(C(=O)N(C)CC(O)CO)c(I)c(C(=O)N(C)CC(O)CO)c1I (stereo not shown) [G, 5-acetylamino-2,4,6-triiodo-isophthalic acid di-(N-methyl-2,3-dihydroxypropylamide)] | – | 550 (≈ 710 mM) | – | – | 820 | 15700 | 81 | –
